According to ChEMBL document CHEMBL1255447, “Efflux pumps, OprD porin, AmpC beta-lactamase, and multiresistance in Pseudomonas aeruginosa isolates from cystic fibrosis patients” (2010):

Columns and labels:
[1] = tested on: Pseudomonas aeruginosa; test: Antimicrobial activity against Pseudomonas aeruginosa isolate 1693c from fibrosis patient by Etest; assay type: functional
[2] = tested on: Pseudomonas aeruginosa; test: Antimicrobial activity against Pseudomonas aeruginosa isolate 1529c from fibrosis patient by Etest; assay type: functional
[3] = tested on: Pseudomonas aeruginosa; test: Antimicrobial activity against Pseudomonas aeruginosa isolate 17145c from fibrosis patient by Etest; assay type: functional
[4] = tested on: Pseudomonas aeruginosa; test: Antimicrobial activity against Pseudomonas aeruginosa R20 Etest; assay type: functional
[5] = tested on: Pseudomonas aeruginosa; test: Antimicrobial activity against Pseudomonas aeruginosa isolate 1681c from fibrosis patient by Etest; assay type: functional
[6] = tested on: Pseudomonas aeruginosa; test: Antimicrobial activity against Pseudomonas aeruginosa isolate 1240 from fibrosis patient by Etest; assay type: functional
[7] = tested on: Pseudomonas aeruginosa; test: Antimicrobial activity against Pseudomonas aeruginosa isolate 1530c from fibrosis patient by Etest; assay type: functional
[8] = tested on: Pseudomonas aeruginosa; test: microbe, parasite or virus in culture; conditions: isolate 13120
Description: Antimicrobial activity against Pseudomonas aeruginosa isolate 13120 from fibrosis patient by Etest

[9] = tested on: Pseudomonas aeruginosa; test: Antimicrobial activity against Pseudomonas aeruginosa isolate 16008 from fibrosis patient by Etest; assay type: functional
[10] = tested on: Pseudomonas aeruginosa; test: Antimicrobial activity against Pseudomonas aeruginosa isolate 1253 from fibrosis patient by Etest; assay type: functional
[11] = tested on: Pseudomonas aeruginosa; test: Antimicrobial activity against Pseudomonas aeruginosa isolate 12102 from fibrosis patient by Etest; assay type: functional
[12] = tested on: Pseudomonas aeruginosa; test: Antimicrobial activity against Pseudomonas aeruginosa isolate 1247c from fibrosis patient by Etest; assay type: functional
[13] = tested on: Pseudomonas aeruginosa; test: Antimicrobial activity against Pseudomonas aeruginosa AHP Etest; assay type: functional
[14] = tested on: Pseudomonas aeruginosa; test: Antimicrobial activity against Pseudomonas aeruginosa isolate 1712c from fibrosis patient by Etest; assay type: functional
[15] = tested on: Pseudomonas aeruginosa; test: Antimicrobial activity against Pseudomonas aeruginosa 1405-con D2 by Etest; assay type: functional
[16] = tested on: Pseudomonas aeruginosa; test: Antimicrobial activity against Pseudomonas aeruginosa isolate 1495c from fibrosis patient by Etest; assay type: functional
[17] = tested on: Pseudomonas aeruginosa; test: Antimicrobial activity against Pseudomonas aeruginosa isolate 1665 from fibrosis patient by Etest; assay type: functional
[18] = tested on: Pseudomonas aeruginosa; test: Antimicrobial activity against Pseudomonas aeruginosa isolate 1726 from fibrosis patient by Etest; assay type: functional
[19] = tested on: Pseudomonas aeruginosa; test: Antimicrobial activity against Pseudomonas aeruginosa isolate 14169c from fibrosis patient by Etest; assay type: functional
[20] = tested on: Pseudomonas aeruginosa; test: Antimicrobial activity against Pseudomonas aeruginosa M1251 by Etest
[21] = tested on: Pseudomonas aeruginosa; test: microbe, parasite or virus in culture; conditions: 2779-con
Description: Antimicrobial activity against Pseudomonas aeruginosa 2779-con by Etest

[22] = tested on: Pseudomonas aeruginosa; test: Antimicrobial activity against Pseudomonas aeruginosa R70 Etest; assay type: functional
[23] = tested on: Pseudomonas aeruginosa; test: Antimicrobial activity against Pseudomonas aeruginosa isolate 1333c from fibrosis patient by Etest; assay type: functional
[24] = tested on: Pseudomonas aeruginosa; test: Antimicrobial activity against Pseudomonas aeruginosa isolate 1352c from fibrosis patient by Etest; assay type: functional
[25] = tested on: Pseudomonas aeruginosa; test: Antimicrobial activity against Pseudomonas aeruginosa isolate 13167 from fibrosis patient by Etest; assay type: functional
[26] = tested on: Pseudomonas aeruginosa; test: Antimicrobial activity against Pseudomonas aeruginosa isolate 15107 from fibrosis patient by Etest; assay type: functional
[27] = tested on: Pseudomonas aeruginosa; test: Antimicrobial activity against Pseudomonas aeruginosa isolate 1248c from fibrosis patient by Etest; assay type: functional
[28] = tested on: Pseudomonas aeruginosa; test: Antimicrobial activity against Pseudomonas aeruginosa isolate 3149 from fibrosis patient by Etest; assay type: functional
[29] = tested on: Pseudomonas aeruginosa; test: Antimicrobial activity against Pseudomonas aeruginosa isolate 15110c from fibrosis patient by Etest; assay type: functional
[30] = tested on: Pseudomonas aeruginosa; test: Antimicrobial activity against Pseudomonas aeruginosa Z799/61 by Etest; assay type: functional
[31] = tested on: Pseudomonas aeruginosa; test: Antimicrobial activity against Pseudomonas aeruginosa isolate 17112 from fibrosis patient by Etest; assay type: functional
[32] = tested on: Pseudomonas aeruginosa; test: Antimicrobial activity against Pseudomonas aeruginosa isolate 12142c from fibrosis patient by Etest; assay type: functional

Measured: MIC

C[C@@H](O)[C@H]1C(=O)N2C(C(=O)O)=C(SCCNC=N)C[C@H]12 [IMIPENEM ANHYDROUS]
64 µg/mL: [9] | [17]
0.12 µg/mL: [13]
2 µg/mL: [4] | [21]
> 32 µg/mL: [10] | [16] | [24] | [29]
128 µg/mL: [31]
8 µg/mL: [1] | [7] | [26]
4 µg/mL: [18] | [20] | [25]
32 µg/mL: [3] | [5] | [11] | [14] | [23] | [28] | [32]
0.5 µg/mL: [30]
16 µg/mL: all other assays above

GENTAMICIN
< 0.12 µg/mL: [13] | [30]
16 µg/mL: [1] | [9] | [10] | [17]
2 µg/mL: [6] | [15] | [18]
1 µg/mL: [22] | [31]
32 µg/mL: [3] | [5] | [7] | [19] | [25]
> 64 µg/mL: [16]
< 0.25 µg/mL: [4]
4 µg/mL: [11]
not listed: [8] | [20] | [21]
> 32 µg/mL: all other assays above

NC[C@H]1O[C@H](O[C@H]2[C@H](O)[C@@H](O[C@H]3O[C@H](CO)[C@@H](O)[C@H](N)[C@H]3O)[C@H](N)C[C@@H]2N)[C@H](N)C[C@@H]1O [TOBRAMYCIN]
32 µg/mL: [17] | [27]
8 µg/mL: [12] | [16] | [23]
≤ 0.12 µg/mL: [13]
> 32 µg/mL: [28] | [29] | [32]
0.25 µg/mL: [8] | [20] | [30]
16 µg/mL: [2] | [3] | [5] | [14] | [24]
0.5 µg/mL: [4] | [6] | [18] | [22] | [31]
1 µg/mL: [11] | [21]
2 µg/mL: [1] | [15] | [26]
4 µg/mL: all other assays above

CC(C)(O/N=C(\C(=O)N[C@@H]1C(=O)N2C(C(=O)[O-])=C(C[n+]3ccccc3)CS[C@H]12)c1csc(N)n1)C(=O)O [CEFTAZIDIME]
4 µg/mL: [2] | [7] | [8] | [11] | [20]
64 µg/mL: [3] | [15] | [24] | [25] | [31]
> 256 µg/mL: [14] | [16]
32 µg/mL: [21]
2 µg/mL: [18]
256 µg/mL: [5] | [6] | [17] | [27] | [29] | [32]
0.5 µg/mL: [13]
128 µg/mL: [23]
≤ 0.12 µg/mL: [30]
not listed: [4] | [9]
8 µg/mL: all other assays above
